Results taken from US11718603B2, “CDK2 inhibitors” (Pfizer Inc., priority 2019, dated 2023).
Read-outs that look alike come from different tables or passages of the source.

Columns and labels:
CDK2/Cyclin E1 = CDK2/Cyclin E1 (Homo sapiens (Human), UniProt P24941); test: CDK2/Cyclin E1 full length mobility shift assay; type: biochemical
Protocol: CDK2/Cyclin E1 Full Length Mobility Shift Assay
Wild-type CDK2/wild-type full length Cyclin E1 enzyme complex was produced in-house (baculoviral expression, LJIC-2080/LJIC-2103) and phosphorylated by CDK7/Cyclin H1/Mat1 enzyme complex with CDK2:CDK7 ratio of 50:1 (concentration mg/mL) in the presence of 10 mM MgCl2 and 5 mM ATP at room temperature for one hour. […] The assay was initiated with the addition of ATP, following a fifteen minutes pre-incubation of enzyme and inhibitor at room temperature in the reaction mixture. The reaction was stopped after 45 minutes at room temperature by the addition of 50 μL of 80 mM EDTA.

GSK3β [1] = target: T1, GSK3β (Homo sapiens, UniProt P49841); test: biochemical; conditions: GSK3β Ki (nM)
Protocol: (§1) The assay was initiated with the addition of ATP, following 15 minutes pre-incubation of enzyme and inhibitor at room temperature in the reaction mixture. The reaction was stopped after 30 minutes at room temperature by the addition of 50 μL of 80 mM EDTA.

GSK3β [2] = target: T1, GSK3β; conditions: read-out: GSK3β Ki
Protocol: as §1

SMILES	Ki (CDK2/Cyclin E1)	Ki (GSK3β [1])	Ki (GSK3β [2])
Cc1ncc(CC(=O)Nc2cc([C@@H]3CC[C@H](OC(=O)N[C@@H]4CCOC[C@H]4C)C3)[nH]n2)s1 (single isomer, unassigned; isomer b) [Example 511, (1S,3R)-3-(3-{[(2-methyl-1,3-thiazol-5-yl)acetyl]amino}-1H-pyrazol-5-yl)cyclopentyl [(3S*,4R*)-3-methyltetrahydro-2H-pyran-4-yl]carbamate- Isomer B]	1.52 nM	4.74 nM	
COc1ccc(CC(=O)Nc2cc([C@@H]3CC[C@H](OC(=O)N4CCC4(C)C)C3)[nH]n2)cn1 [Example 145]	0.12 nM		
CC[C@H](C)NC(=O)O[C@@H]1CC[C@H](c2cc(NC(=O)c3cc(COC)nn3C)n[nH]2)C1 [Example 14, (1R,3S)-3-[3-({[3-(methoxymethyl)-1-methyl-1H-pyrazol-5-yl]carbonyl}amino)-1H-pyrazol-5-yl]cyclopentyl (2S)-butan-2-ylcarbamate]	0.27 nM		294 nM
Cc1ncc(CC(=O)Nc2cc([C@H]3CC[C@@H](OC(=O)NC(C)C)C3)[nH]n2)s1 [Example 2, (1R,3S)-3-(3-{[(2-methyl-1,3-thiazol-5-yl)acetyl]amino}-1H-pyrazol-5-yl)cyclopentyl propan-2-ylcarbamate]	0.31 nM		
Cc1cc(CC(=O)Nc2cc([C@H]3CC[C@@H](OC(=O)N4CCCC[C@@H]4C)C3)[nH]n2)on1 [Example 640, (1R,3S)-3-(3-{[(3-methyl-1,2-oxazol-5-yl)acetyl]amino}-1H-pyrazol-5-yl)cyclopentyl(2S)-2-methylpiperidine-1-carboxylate]			13.3 nM
Cc1ncc(CC(=O)Nc2cc([C@@H]3CC[C@H](OC(=O)N[C@@H]4CCOC[C@H]4C)C3)[nH]n2)s1 (single isomer, unassigned; isomer a) [Example 510, (1S,3R)-3-(3-{[(2-methyl-1,3-thiazol-5-yl)acetyl]amino}-1H-pyrazol-5-yl)cyclopentyl [(3S*,4R*)-3-methyltetrahydro-2H-pyran-4-yl]carbamate- Isomer A]	0.19 nM	14 nM	
